This is an account of results in paper PMC10066322 (Scientific Reports, 2023).

For orientation: Ki means a dissociation constant, usually derived from enzyme kinetics or from competition with a known ligand.

For one test, the target named is T1, PARN1-430 (Homo sapiens, UniProt O95453).
T1 construct: expression of the C-terminal truncated protein (1-430 aa of PARN) was soluble; His tag (from the pCold I vector); made in house; host or cells: E. coli Rosetta 2 DE
T1 sequence (O95453 1-430): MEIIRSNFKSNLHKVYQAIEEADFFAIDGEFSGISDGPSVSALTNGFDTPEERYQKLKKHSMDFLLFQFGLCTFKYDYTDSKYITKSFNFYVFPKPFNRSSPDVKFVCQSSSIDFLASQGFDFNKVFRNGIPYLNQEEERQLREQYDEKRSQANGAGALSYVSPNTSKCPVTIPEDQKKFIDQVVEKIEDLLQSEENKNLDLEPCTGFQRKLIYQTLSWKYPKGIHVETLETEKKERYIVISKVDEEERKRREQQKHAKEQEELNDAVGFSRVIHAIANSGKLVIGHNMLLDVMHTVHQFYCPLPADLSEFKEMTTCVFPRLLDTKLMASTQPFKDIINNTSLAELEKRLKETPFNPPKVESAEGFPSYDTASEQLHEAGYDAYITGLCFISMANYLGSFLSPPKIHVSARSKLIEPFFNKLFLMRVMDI
Put plainly: Inhibition fluorescence assay (FAM-RNA / BHQ quencher deadenylase assay). The test is classed as biochemical. The note with it: 2.5 mM AMP, PARN1-430 73 nM. As to the method:
To easily screen compounds for inhibition of PARN activity, we developed an assay in which fluorescence was used as the readout for monitoring PARN1-430’s activity (Fig. 3a). This assay was modeled on a similar assay developed for Caf1/CNOT7 deadenylase. In this assay, PARN1-430 was incubated with a 5′-fluorescently labeled oligoadenylated RNA. In the absence of deadenylation, this substrate RNA can effectively hybridize to a complementary DNA oligonucleotide with a quencher on its 3′ end leading to a loss of fluorescence (Fig. 3a). When the RNA substrate is deadenylated, the quenching oligonucleotide is no longer able to stably hybridize leading to an increase in fluorescence in the reaction.
Figure 3 Developing a fluorescence assay for PARN inhibition. (a) Cartoon depicting the inhibition fluorescence assay. Schematic diagram of the fluorescence-based deadenylase assay. The assay is based on a 5′ FAM-labelled RNA oligonucleotide substrate. After incubation of the substrate in the presence of PARN1-430, the reaction is stopped and a 3′ BHQ-labelled DNA oligonucleotide probe complementary to the RNA substrate is added. The fluorescence of intact substrate is quenched upon probe hybridization because of the proximity of the BHQ […]. In contrast, the BHQ-labelled probe cannot hybridize to the FAM-labelled reaction product allowing detection of FAM fluorescence. […] 2-way ANOVA, multiple comparisons test, average ± SD, n = 3 replicates. *P < 0.05, **P < 0.005, ***P < 0.001, ****P < 0.0001, n.s. was not indicated. […] Dotted-line represents RNA and RNA + Quencher data. One-way ANOVA, multiple comparisons test, average ± SD, n ≥ 3 replicates. *P < 0.05, **P < 0.005, ***P < 0.001, ****P < 0.0001, n.s. was not indicated. (d) PARN1-430 and PARNmut enzymatic activity measured at different time points. […] Dotted-line represents RNA and RNA + Quencher data. 2-way ANOVA, multiple comparisons test, average ± SD, n = 3 replicates. *P < 0.05, **P < 0.005, ***P < 0.001, ****P < 0.0001, n.s. was not indicated.
Quenched reaction was incubated at room temperature for 10–60 min and fluorescence was measured using Fluorescein wavelength measurement.
`Nc1ncnc2c1ncn2[C@@H]1O[C@H](COP(=O)(O)O)[C@@H](O)[C@H]1O` [AMP, adenosine monophosphate]: the “inhibition of PARN1-430, fluorescence assay” value was “effectively inhibited”.

The same test, now with this note: computational docking compounds; fluorescence assay and gels; PARN1-430 pretreated with drug 10 min.
As for `Nc1ncnc2c1c(I)cn2C1OC(CO)C(O)C1O` (stereo not shown) [5-ITU, 5-Iodotubercidin], the “PARN inhibitor in vitro” value is “No”.

As for `Nc1ncnc2c1c(Br)cn2[C@@H]1O[C@H](CO)[C@@H](O)[C@H]1O` [5-bromotubercidine], the “PARN inhibitor in vitro” value is reported as “No”.

As to `NC(=O)c1ncn([C@@H]2O[C@H](CO)[C@@H](O)[C@H]2O)c1N` [AICAR], the “PARN inhibitor in vitro” value is reported as “No”.

As for `CCn1nc(C2CCN(C(=O)CCO)CC2)nc1-c1cnc(N)c(-c2nnc(C(C)(C)C)o2)n1` [AZD8835], the “PARN inhibitor in vitro” value is on record as “No”.

Consider `Nc1nc(Cl)nc2c1ncn2[C@H]1C[C@H](O)[C@@H](CO)O1` [Cladribine], for which the “PARN inhibitor in vitro” value was “Yes”.

As to `Nc1nc(Cl)nc2c1ncn2[C@@H]1O[C@H](CO)[C@@H](O)[C@@H]1F` [Clofarabine], the “PARN inhibitor in vitro” value is reported as “No”.

On to `Nc1ncnc2c1ncn2[C@H]1O[C@@H](CO)[C@H](O)[C@@H]1O` [L-adenosine], for which the “PARN inhibitor in vitro” value is “No”.

Consider `CNC(=O)c1cnn(-c2nc(N)c3ncn([C@@H]4O[C@H](CO)[C@@H](O)[C@H]4O)c3n2)c1` [Regadenoson], for which the “PARN inhibitor in vitro” value was “Yes”.

On to `COc1nc(N)c2ncn([C@@H]3O[C@H](CO)[C@@H](O)[C@H]3O)c2n1` [Spongosine], for which the “PARN inhibitor in vitro” value is “Yes”.

With `Nc1cccc(-c2cc3c(Oc4cccc(O)c4)ncnc3[nH]2)c1` [TWS119], the “PARN inhibitor in vitro” value was “No”.

For `Nc1ncnc2c1ccn2[C@@H]1O[C@H](CO)[C@@H](O)[C@H]1O` [Tubercidine], the “PARN inhibitor in vitro” value is listed as “Yes”.

Take `Nc1ncnc2c1ncn2[C@@H]1O[C@H](CO)[C@@H](O)[C@@H]1O` [Vidarabine]: the “PARN inhibitor in vitro” value is “No”.

A further test deals with T1, PARN1-430. The test can be described thus: Gel assay of poly(A) RNA shortening by PARN1-430. It is filed as biochemical.
Conditions: not given
As to the method:
PARN1-430 was incubated with a fluorescently labeled RNA with a CCUUUCC sequence followed by a 9 nucleotide-long poly(A) tail and the reaction product was visualized on denaturing acrylamide gels. We observed that PARN removed the 3′ oligo(A) tail from the RNA substrate (Fig. 2c and d). […] Moreover, we observed that PARN is inhibited when treated with adenosine monophosphate (AMP), as has been reported previously.
1 µL of protein (73 nM as final concentration) (stock protein is diluted in 1× lysis buffer (HEPES KOH, pH 7.4, 30 mM, KOAc 100 mM, and Mg(Oac)2 2 mM) was added to 4 µL of 2.5× reaction buffer (Tris–HCl pH 7.4, 10 mM, KCl 50 mM, MgCl2 5 mM). If drug was added, reaction was pre-incubated with drugs for 10 min before 5 µL of RNA (5 µM as final concentration) was added. The reaction was incubated at 37 °C for 20 min. After the incubation, the reaction was either diluted with 2× loading buffer and heated to 95 °C for 5 min for gel or quenched by adding 10 µL of quencher solution (30 µM of 3′-BHQ labeled quench DNA in 1% SDS). Quenched reaction was incubated at room temperature for 10–60 min and fluorescence was measured using Fluorescein wavelength measurement.
15% TBE-Urea gel (Thermo Fisher Scientific) was prerun at 20W for 30 min. RNAs from the reaction was loaded into 15% TBE gels and run at 300 V for 35 min. The gel was visualized using iBright (Invitrogen FL1500).
Turning to `Nc1ncnc2c1ncn2[C@@H]1O[C@H](COP(=O)(O)O)[C@@H](O)[C@H]1O` [AMP, adenosine monophosphate], the “inhibitory effect on PARN1-430, gel assay” value is reported as “inhibited”.

The target of the next test is T2, PARN (Homo sapiens, UniProt O95453).
T2 construct: expression of the C-terminal truncated protein (1-430 aa of PARN) was soluble; His tag (from the pCold I vector); made in house; host or cells: E. coli Rosetta 2 DE
T2 sequence (O95453 1-430): T1 sequence (O95453 1-430)
Assay: not given
The note with it: cited from earlier work.
For `O=C(Nc1ncnc2c1ncn2[C@@H]1O[C@H](CO)C[C@H](F)[C@H]1O)c1ccccc1` [A2, 9-(3′,4′, dideoxy-3′-fluoro-β-d-glucopyranosyl)-N6-benzoyl adenine], the Ki is 510 ± 52 µM and the “PARN inhibitor in vitro” value is recorded as “Yes”.

As for `O=C(Nc1ncnc2c1ncn2[C@@H]1O[C@H](CO)C[C@H](F)[C@H]1O)c1ccccc1` [A6, 1-(3′,4′, dideoxy-3′-fluoro-β-d-glucopyranosyl)-N4-benzoyl adenine], the Ki was 210 ± 45 µM and the “PARN inhibitor in vitro” value is recorded as “Yes”.

In the case of `Nc1ncnc2c1ncn2[C@@H]1O[C@H](COP(=O)(O)O)[C@@H](O)[C@H]1O` [AMP, adenosine monophosphate], the “concentration at which PARN1-430 is inhibited” value is recorded as > 1 mM.

For `OC[C@H]1OC(O)[C@H](O)[C@@H](F)[C@@H]1O` (stereo partly shown) [B6], the “PARN inhibitor in vitro” value was “Yes”.

Consider `O=c1[nH]c(=O)n([C@@H]2O[C@H](CO)[C@@H](O)[C@H](F)[C@H]2O)cc1F` [FU1, 1-(3′-deoxy-3′-fluoro-β-d-glucopyranosyl) 5-fluorouracil], for which the Ki was 98 ± 12 µM and the “PARN inhibitor in vitro” value is “Yes”.

Turning to `NC[C@H]1O[C@H](O[C@H]2[C@H](O)[C@@H](O[C@H]3O[C@H](CO)[C@@H](O)[C@H](N)[C@H]3O)[C@H](N)C[C@@H]2N)[C@H](N)[C@@H](O)[C@@H]1O` [Kanamycin B], the Ki is 7.3 ± 0.4 µM and the “PARN inhibitor in vitro” value is “Yes”.

Consider `NC[C@@H]1O[C@H](O[C@H]2[C@@H](O)[C@H](O[C@@H]3[C@@H](O)[C@H](N)C[C@H](N)[C@H]3O[C@H]3O[C@H](CO)[C@@H](O)C[C@H]3N)O[C@@H]2CO)[C@H](N)[C@@H](O)[C@@H]1O[C@H]1O[C@H](CO)[C@@H](O)[C@H](O)[C@@H]1O` [Lividomycin], for which the Ki was 18.7 ± 2.8 µM and the “PARN inhibitor in vitro” value was “Yes”.

Consider `NC[C@@H]1O[C@H](O[C@H]2[C@@H](O)[C@H](O[C@@H]3[C@@H](O)[C@H](N)C[C@H](N)[C@H]3O[C@H]3O[C@H](CN)[C@@H](O)[C@H](O)[C@H]3N)O[C@@H]2CO)[C@H](N)[C@@H](O)[C@@H]1O` [Neomycin B], for which the Ki is 0.4 ± 0.1 µM and the “PARN inhibitor in vitro” value is “Yes”.

In the case of `NC[C@@H]1O[C@H](O[C@H]2[C@@H](O)[C@H](O[C@@H]3[C@@H](O)[C@H](N)C[C@H](N)[C@H]3O[C@H]3O[C@H](CO)[C@@H](O)[C@H](O)[C@H]3N)O[C@@H]2CO)[C@H](N)[C@@H](O)[C@@H]1O` [Paromomycin], the Ki is 17.3 ± 3.5 µM and the “PARN inhibitor in vitro” value is “Yes”.

Consider `Cc1cn([C@@H]2O[C@H](CO)[C@@H](O)[C@H](F)[C@H]2O)c(=O)[nH]c1=O` [T1, 1-(3′-deoxy-3′-fluoro-β-d-glucopyranosyl) thymine], for which the Ki is 135 ± 18 µM and the “PARN inhibitor in vitro” value was “Yes”.

`NC[C@H]1O[C@H](O[C@H]2[C@H](O)[C@@H](O[C@H]3O[C@H](CO)[C@@H](O)[C@H](N)[C@H]3O)[C@H](N)C[C@@H]2N)[C@H](N)C[C@@H]1O` [Tobramycin]: the Ki is 7.1 ± 0.2 µM and the “PARN inhibitor in vitro” value is on record as “Yes”.

As to `O=c1ccn([C@@H]2O[C@H](CO)[C@@H](O)[C@H](F)[C@H]2O)c(=O)[nH]1` [U1, 1-(3′-deoxy-3′-fluoro-β-d-glucopyranosyl) uracil], the Ki was 19 ± 5 µM and the “PARN inhibitor in vitro” value is recorded as “Yes”.

Consider Kanamycin A, for which the “PARN inhibitor in vitro” value was “Yes”.
